From EP0737689A1, “NOVEL 6-SUBSTITUTED OXA- OR […]” (TEIKOKU HORMONE MFG. CO., LTD., priority 1993, dated 1995) come the findings set out here.

The term IC50 denotes the midpoint of a concentration-inhibition curve. A high value points to a need for much substance.

Experiment [1] concerns the target T1, aromatase (Rattus norvegicus, UniProt P22443).
T1 construct: mature female rats after one week from hypophysectomy were used; from tissue; host or cells: whole animal (hypophysectomised mature female rats)
T1 sequence (P22443 1-508): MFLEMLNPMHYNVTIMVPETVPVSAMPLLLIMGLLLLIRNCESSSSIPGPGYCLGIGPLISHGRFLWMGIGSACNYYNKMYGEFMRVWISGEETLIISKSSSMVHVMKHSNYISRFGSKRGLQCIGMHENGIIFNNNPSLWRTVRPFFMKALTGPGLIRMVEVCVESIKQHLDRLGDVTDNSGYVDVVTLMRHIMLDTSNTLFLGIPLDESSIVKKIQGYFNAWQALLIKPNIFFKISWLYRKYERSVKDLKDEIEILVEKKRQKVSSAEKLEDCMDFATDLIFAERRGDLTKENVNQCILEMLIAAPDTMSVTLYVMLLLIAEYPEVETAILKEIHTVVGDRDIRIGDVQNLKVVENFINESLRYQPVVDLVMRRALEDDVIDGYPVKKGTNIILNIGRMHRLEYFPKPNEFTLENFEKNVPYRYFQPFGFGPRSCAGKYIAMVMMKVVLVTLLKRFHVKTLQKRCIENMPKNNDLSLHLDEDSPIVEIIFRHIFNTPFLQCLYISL
The experiment can be described thus: Assay of aromatase inhibition action (in vivo), inhibition of DHEAS-induced cornification of the vaginal smear. The following applies: orally once a day for 4 days, hypophysectomized mature female rats, 16 mg/kg DHEAS, cornification relative to solvent administration group. As to the method:
An aromatase inhibition action was assayed according to the method developed by G.H.Deckers and A.H.W.M.Schuurs (Journal of Steroid Biochemistry 32, 625-631, 1989).
Namely, mature female rats after one week from hypophysectomy were used with one group of 8 to 10 animals. Either 16 mg/kg of dehydroepiandrosterone sulfate (DHEAS) and 5 ml/kg of a solvent (physiological saline containing 2 % polysorbate 80), or DHEAS and a test compound suspended in the solvent were orally administered once a day for successive 4 days. For 6 days from the next day of start of the administration, the vaginal smear was sampled, and observed under a microscope after being stained with Giemsa staining solution. Cornification of the vaginal smear due to DHEAS was observed from 3 days after the initial administration, and its action disappeared 6 days thereafter. Therefore, the cornification smear number was expressed as the total of from the third day to the fifth day from the start of administration. An cornification inhibition action by the test compound was expressed as a rate to cornification in the solvent administration group.
Since cornification of the vaginal smear is caused by estrogens biosynthetically produced from DHEAS by aromatase, inhibition of the cornification is observed when aromatase is inhibited.

The target in experiment [2] is T2, aromatase (Homo sapiens, UniProt P11511).
T2 construct: Human placental microsomes (ones subjected to centrifugation at 105,000 X g for 60 minutes) were prepared according to the method of Ryan; from tissue; host or cells: human placenta (microsomal fraction)
T2 sequence (P11511 1-503): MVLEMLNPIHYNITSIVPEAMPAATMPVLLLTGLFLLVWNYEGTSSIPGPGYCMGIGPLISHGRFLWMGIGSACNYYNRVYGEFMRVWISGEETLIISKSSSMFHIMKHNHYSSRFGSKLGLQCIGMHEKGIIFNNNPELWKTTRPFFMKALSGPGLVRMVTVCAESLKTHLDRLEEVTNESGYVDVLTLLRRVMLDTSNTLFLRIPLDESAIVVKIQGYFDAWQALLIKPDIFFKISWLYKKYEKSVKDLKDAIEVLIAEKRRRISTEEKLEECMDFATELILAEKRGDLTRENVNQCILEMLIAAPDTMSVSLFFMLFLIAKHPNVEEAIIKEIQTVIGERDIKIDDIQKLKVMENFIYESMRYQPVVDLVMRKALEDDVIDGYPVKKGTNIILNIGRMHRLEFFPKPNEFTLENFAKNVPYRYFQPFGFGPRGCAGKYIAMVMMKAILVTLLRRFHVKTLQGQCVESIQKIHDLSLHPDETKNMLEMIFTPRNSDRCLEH
As to the kind of experiment: Assay of aromatase inhibition action (in vitro), 3H2O release from [1β-3H]androstenedione. The experiment is classed as biochemical. As to conditions: freeze dried human placental microsomes, 2 µM [1β-3H]androstenedione, 180 µM NADPH, pH 7.5, 37°C, 20 minutes. On the procedure: Human placental microsomes (ones subjected to centrifugation at 105,000 X g for 60 minutes) were prepared according to the method of Ryan (The Journal of Biological Chemistry 234, 268-272, 1959). The microsomes were washed twice with 0.5 mM dithiothreitol solution, freeze dried, and stored at -20°C until use.
An aromatase inhibition action was assayed according to the method developed by Tompson and Siiteri (The Journal of Biological Chemistry 249, 5373-5378, 1974). Namely, the method comprises quantitatively determining ^3H2O released when [1β-^3H]androstenedione is aromatized. The experiment, when the enzyme was used, was conducted in 67 mM phosphate buffer (pH 7.5) so that the amount of the final incubation solution could be 0.5 ml. The incubation solution contains 180 µM of NADPH, 2 µM of [1β-^3H]androstenedione, 150 µg of freeze dried human placental microsomes, 25 µl of methanol and a test compound at various concentrations. Incubation was conducted in the air at 37°C for 20 minutes, 3 ml of chloroform was added to discontinue the reaction, and then the mixture was stirred for 40 seconds. The mixture was then centrifuged at 700 X g for 10 minutes, 0.3 ml of the aqueous solution was sampled from the supernatant, the scintillation mixture was added, and the amount of ^3H2O formed was measured.

Turning to `C[C@]12C=CC(=O)C=C1[C@@H](SC#N)C[C@@H]1[C@@H]2CC[C@]2(C)C(=O)OCC[C@@H]12` [Example 13 (6α), 6α-thiocyanato-D-homo-17-oxaandrosta-1,4-diene-3,17a-dione], the “Inhibition rate (%)” value in experiment [1] (dose 5 mg/kg/day) is 81.3%.
On the same count and under the same terms, under `CO[C@@H]1C[C@@H]2[C@H](CC[C@]3(C)C(=O)OCC[C@@H]23)[C@@]2(C)C=CC(=O)C=C12` [Example 31, 6β-methoxy-D-homo-17-oxaandrosta-1,4-diene-3,17a-dione] stands 100%.
In the case of `CS[C@@H]1C[C@H]2[C@@H]3CCOC[C@@]3(C)CC[C@@H]2[C@@]2(C)C=CC(=O)C=C12` [Example 10, 6β-(methylthio)-D-homo-17-oxaandrosta-1,4-dien-3-one], in experiment [2], the IC50 was 800 nM.
Consider `C[C@]12CC[C@H]3[C@@H](C[C@H](N=[N+]=[N-])C4=CC(=O)C=C[C@@]43C)[C@@H]1CCOC2` [Example 17, 6α-azido-D-homo-17-oxaandrosta-1,4-dien-3-one], for which the “Inhibition rate (%)” value in experiment [1] (dose 5 mg/kg/day) was found to be 100%.
On to `CC(=O)S[C@H]1C[C@H]2[C@@H]3CCOC[C@@]3(C)CC[C@@H]2[C@@]2(C)C=CC(=O)C=C12` [Example 19, 6α-(acetylthio)-D-homo-17-oxaandrosta-1,4-dien-3-one], for which, in experiment [1] (dose 5 mg/kg/day), the “Inhibition rate (%)” value amounted to 72.3%.
Take `CC(=O)S[C@H]1C[C@@H]2[C@H](CC[C@]3(C)C(=O)OCC[C@@H]23)[C@@]2(C)C=CC(=O)C=C12` [Example 15, 6α-(acetylthio)-D-homo-17-oxaandrosta-1,4-diene-3,17a-dione]: the midpoint of inhibition in experiment [2], the IC50, lay at 1600 nM. Moreover, the “Inhibition rate (%)” value in experiment [1] (dose 2 mg/kg/day) is 90.9%.
